Laboratory results from patent US10080366B2, “Agent for increasing sugar content in fruit” (RIKEN, priority 2012, dated 2018).
Read-outs that look alike come from different tables or passages of the source.

Columns and labels:
[1] = test system: clusters of grape (variety: Crimson); assay: Estimated transpiration ratio of grape clusters (Example 9); type: in vivo; conditions: 10 g/L; 8 days after treatment
[2] = test system: harvested fruit of grape (variety: Barikan); conditions: for Sugar content (%) 8 days later, actually measured value / Mass (g) 6 days later (Jun. 8) / Mass (g) 8 days later (Jun. 10): 25° C.; for Mass (g) 6 days later (Jun. 8) / Mass (g) 8 days later (Jun. 10): mass 100 g on date of application; for Sugar content (%) 8 days later, calculated value: calculated from decrease in mass; for Sugar content (%) on date of application (Jun. 2): before application
Procedure: The fruit of grape was maintained in an air-conditioned greenhouse (temperature: 25° C.), and measured for the mass over time. The sugar content of the fruit was measured before the application and 8 days after the application with a sugar content meter. Next, on the assumption that the change in the mass of the fruit was entirely due to the change in water content, calculated values of the amount of decrease in mass and the sugar content on the date (June 2) of the application were determined […] by using the following calculation formula. (Calculated as follows: the sugar content (%) calculated value))=the sugar content (%) before application×the mass (g) on the date of application/the mass (g) on the date of measurement))

Mikan = conditions: 6 days after treatment
Tomato = conditions: 6 days after treatment
[3] = test system: fruit of grape (variety: Red Globe); conditions: for Sugar content (%) May 16: date of application; for mass of fruit as % of the mass on the date of application: 17 days later; for Sugar content (%) Jun. 2 Calculated value: calculated from decrease in mass
Procedure: The mass of fruit of grape (variety: Red Globe) purchased on the market was measured. Then, the prepared agents for increasing a sugar content in a fruit were applied by spraying to the fruit of grape, which was then allowed to stand in an air-conditioned greenhouse (temperature: 25° C.). With the mass of the grape on the date of application being 100 g, the mass of the grape after the application was measured over time (date of application: May 16, 2011; dates of test: May 19, May 23, May 27, May 30, and Jun. 2, 2011). Next, on the assumption that the change in mass of the fruit was entirely due to the change in water content, the calculated value of the sugar content was determined from the amount of decrease in mass and the sugar content on the date […] of the application (calculated as follows: “the sugar content (calculated value)=the sugar content (%) on the date of application×the mass (g) on the date of application/the mass (g) on the date of measurement”). In addition, as a control, the mass of untreated grape was measured in the same manner. The results are shown in Tables 7 and 8 and FIGS. 12 to 14.

[4] = test system: fruit of grape (variety: Red Globe)
Procedure: An agent for increasing a sugar content in a fruit (containing Sorbon T-20 as a spreader/sticker at a final concentration of 200 μL/L) diluted with water to have a potassium hydrogen carbonate concentration of 10 g/L was prepared. The mass of fruit of grape (variety: Red Globe) purchased on the market was measured. Then, the prepared agent for increasing a sugar content in a fruit was applied by spraying to the fruit of grape. Then, the fruit of grape was allowed to stand in an air-conditioned greenhouse (temperature: 25° C.), and the mass was measured over time (date of application: Apr. 27, 2011; dates of test: May 2, 2011, May 6, 2011, May 9, 2011, May 11, 2011, May 13, 2011, and May 16, 2011). In addition, as a control, the mass of untreated grape was measured on each date of measurement in the same manner.
On the basis of the measured mass, the estimated amount (cumulative value) of transpiration and the estimated amount of transpiration per day were calculated. The results are shown in Tables 5 and 6 and FIGS. 10 and 11.
Note that the vertical axis in FIG. 10 represents the mass (g) of the fruit of grape on each of the dates of measurement per 100 g of the fruit of grape on the date of application, and the vertical axis in FIG. 11 represents the estimated amount (g) of transpiration on each of the dates of measurement per 100 g of the fruit of grape on the date of application. The estimated amount (g) of transpiration on each of the dates of measurement per 100 g of the fruit of grape on the date of application=(the mass (g) of the fruit of grape on the date of application−the mass (g) of the fruit of grape on the date of measurement)/the mass of the fruit of grape on the date of application×100

[5] = 10 g/L, May 19, 100 g on May 16
[6] = approximately 3 weeks later (19 days later)

In the case of `O=P([O-])([O-])OP(=O)([O-])[O-].[K+].[K+].[K+].[K+]` [Tetrapotassium pyrophosphate, tetrapotassium pyrophosphate], the “Estimated transpiration ratio (%) Average” value [1] is reported as 32%, the “Estimated transpiration ratio (%) First” value [1] is reported as 32% and the “decrease of mass of fruit in 8 days (June 2 to June 10)” value ([2]; 10 g/L) is reported as 19.1%. The “Sugar content (%) 8 days later, actually measured value” ([2]; 10 g/L) was 21.5%, the “Mass (g) 6 days later (Jun. 8)” value ([2]; 10 g/L) was 85.7 g and the “Mass (g) 8 days later (Jun. 10)” value ([2]; 10 g/L) was 80.9 g. The “Sugar content (%) 8 days later, calculated value” ([2]; 10 g/L) was 21.6%, the “Sugar content (%) on date of application (Jun. 2)” value (“Sugar content (%) on date” for short) [2] was 17.5% and the “Ratio (%) of decrease in body weight of fruit” value (from here on “Ratio (%) of decrease”) (Mikan; dilution ratio 100 (10 g/L)) was 10.4%. The “Ratio (%) of decrease” value (Tomato; dilution ratio 100 (10 g/L)) was 13.8%, the “ratio of decrease in mass per day (comparison)” value ([3]; 10 g/L) was “highest ratio of decrease in mass per day” and the “Sugar content (%) May 16” value ([3]; 10 g/L group) was 16.6%. The “mass of fruit as % of the mass on the date of application” value (shortened to “mass of fruit as % of the mass”) ([3]; 10 g/L) was 57.3%, the “mass (g) of the fruit” value ([3]; 10 g/L, Jun. 2) was 57.3 g and the “mass (g) of the fruit” value [3, 5] was 86.7 g. The “mass (g) of the fruit” value ([3]; 10 g/L, May 23) was 78.9 g, the “mass (g) of the fruit” value ([3]; 10 g/L, May 27) was 69.8 g and the “mass (g) of the fruit” value ([3]; 10 g/L, May 30) was 63.8 g. For the same compound, the “Sugar content (%) Jun. 2 Calculated value” ([3]; 10 g/L) was 29%.
In the case of `O=C([O-])[O-].[K+].[K+]` [Potassium carbonate, potassium carbonate], the “Estimated transpiration ratio (%) Average” value [1] is reported as 33%, the “Estimated transpiration ratio (%) First” value [1] is reported as 35% and the “Estimated transpiration ratio (%) Second” value [1] is reported as 31%. For the same compound, the “decrease of mass of fruit in 8 days (June 2 to June 10)” value ([2]; 10 g/L) was 25.56%, the “Sugar content (%) 8 days later, actually measured value” ([2]; 10 g/L) was 24.5% and the “Mass (g) 6 days later (Jun. 8)” value ([2]; 10 g/L) was 80.7 g. The “Mass (g) 8 days later (Jun. 10)” value ([2]; 10 g/L) was 74.5 g, the “action to increase the sugar content in the fruit (comparison)” value ([2]; 10 g/L, 8 days) was “the best” and the “Sugar content (%) 8 days later, calculated value” ([2]; 10 g/L) was 24.2%. The “Sugar content (%) on date” value [2] was 18.0%, the “Sugar content (%) on date” value ([2]; listed as potassium carbonate) was 18% and the “Ratio (%) of decrease” value (Mikan; dilution ratio 50 (20 g/L)) was 12.0%. The “Ratio (%) of decrease” value (Mikan; dilution ratio 100 (10 g/L)) was 12.4%, the “Ratio (%) of decrease” value (Tomato; dilution ratio 50 (20 g/L)) was 21.1% and the “Ratio (%) of decrease” value (Tomato; dilution ratio 100 (10 g/L)) was 18.0%. For the same compound, the “Sugar content (%) May 16” value ([3]; 5 g/L group) was 17.6%, the “mass of fruit as % of the mass” value ([3]; 5 g/L) was 66.6% and the “mass (g) of the fruit” value ([3]; 5 g/L, Jun. 2) was 66.6 g. The “mass (g) of the fruit” value ([3]; 5 g/L, May 19, 100 g on May 16) was 90.8 g, the “mass (g) of the fruit” value ([3]; 5 g/L, May 23) was 84.5 g and the “mass (g) of the fruit” value ([3]; 5 g/L, May 27) was 77 g. The “mass (g) of the fruit” value ([3]; 5 g/L, May 30) was 72.1 g, the “Sugar content (%) Jun. 2 Calculated value” ([3]; 5 g/L) was 26.5% and the “Sugar content (%) May 16” value ([3]; 10 g/L group) was 18.2%. For the same compound, the “mass of fruit as % of the mass” value ([3]; 10 g/L) was 65%, the “mass (g) of the fruit” value ([3]; 10 g/L, Jun. 2) was 65 g and the “mass (g) of the fruit” value [3, 5] was 90.6 g. The “mass (g) of the fruit” value ([3]; 10 g/L, May 23) was 83.9 g, the “mass (g) of the fruit” value ([3]; 10 g/L, May 27) was 75.9 g and the “mass (g) of the fruit” value ([3]; 10 g/L, May 30) was 70.6 g. The “Sugar content (%) Jun. 2 Calculated value” ([3]; 10 g/L) was 28%, the “sugar concentration in the fruit (suggested)” value ([4]; 2 weeks later, assuming 20% on April 27, 20/41.4) was “exceeded 48%” and the “Estimated amount (g) of transpiration per 100 g of fruit on date of application” value ([4]; 5 days later) was 18.8 g. The “Mass (g) of fruit per 100 g of fruit on date of application” value (from here on “Mass (g) of fruit per 100 g of fruit”) ([4]; 5 days later (applied Apr. 27)) was 81.2 g, the “Estimated amount (g) of transpiration per 100 g of fruit on date of application” value ([4]; 9 days later) was 31.5 g and the “Mass (g) of fruit per 100 g of fruit” value ([4]; 9 days later) was 68.5 g. For the same compound, the “Estimated amount (g) of transpiration per 100 g of fruit on date of application” value ([4]; 12 days later) was 40 g, the “Mass (g) of fruit per 100 g of fruit” value ([4]; 12 days later) was 60 g and the “Estimated amount (g) of transpiration per 100 g of fruit on date of application” value ([4]; 14 days later) was 45.8 g. For the same compound, the “Mass (g) of fruit per 100 g of fruit” value ([4]; 14 days later) was 54.2 g, the “Estimated amount (g) of transpiration per 100 g of fruit on date of application” value ([4]; 16 days later) was 51.3 g and the “Mass (g) of fruit per 100 g of fruit” value ([4]; 16 days later) was 48.7 g. The “Estimated amount (g) of transpiration per 100 g of fruit on date of application” value ([4]; 19 days later) was 58.6 g, the “Mass (g) of fruit per 100 g of fruit” value ([4]; 19 days later) was 41.4 g and the “mass as % of the mass on the date of application” value [4, 6] was 41.4%. For the same compound, the “ratio of transpiration of the fruit” value [4, 6] was 58.6%, the “mass relative to mass on the date of application” value ([4]; in 2 weeks) was “approximately ½” and the “estimated amount of transpiration relative to untreated fruit” value ([4]; in vivo) was “two times or more of that of the untreated fruit”.
